Binding data for 1 molecule are collected here from publication PMC9337991 (2022).

The assay concerns tandem Na+ and c-di-AMP riboswitch (DUF1646_cdA_WT transcript) (RNA, riboswitch) AUUUAUAAGGUUACUUUCGGUUGGAAUGGUUAUUACCAUUUUCAAGAGAAGCGGGCUCUGGGGUGGGAGGCUACCAAAUAUUGGUAUAGCUAUCCACCUUUAUUUAUUUUUUUUAAGACAACAACUGAAUAUAUUUAUACGCUGAAUCCGUUAGGAACGGGAGACCCAAAUAAUAGGGGUGAAUCCAAAGCGGUUGCUUUGGUAGGGUUAAGCUCUUUCGACCCGAAUCCGUCAGCUAAUCUCGUAAGCGGUGGAAGAGAAGGUGAUUGAUAUGCUUAAUUACACCUUUAGUUAAGGUAUAUAUUUUAGCAUACGCUGCAGAUACUUCUCUGCAGCUUUUUGUUUUAUAUACCACAAAUGUUGAGGAUGACAAUCUUCAAUGAGAAUCUGAAGGAGGAAUUAAAUAAUAUGGGAUCCAAAGGA
Briefly: in vitro single-round transcription termination. To be noted: K+ 100 mM, Mg2+ 4 mM; 40 mM Tris-HCl pH 7.5, 37 °C; E. coli RNA polymerase; functional co-transcriptional response, no constant.

Regarding `Nc1ncnc2c1ncn2[C@@H]1O[C@@H]2COP(=O)(O)O[C@H]3[C@@H](O)[C@H](n4cnc5c(N)ncnc54)O[C@@H]3COP(=O)(O)O[C@H]2[C@H]1O`, the binding entry is on record as “yes”.
